Source: ChEMBL document CHEMBL1140243, “Synthesis and SAR of 2,3-diarylpyrrole inhibitors of parasite cGMP-dependent protein kinase as novel anticoccidial agents” (Bioorg Med Chem Lett, 2005)

Columns and labels:
Type in all cases: functional
Parameters in all cases: scale not given: the % may be the effect or the level left
[1] = organism: Gallus gallus; assay: Anticoccidial activity (percent reduction in oocyst production) against Eimeria mitis in chickens at 66 ppm; Range = 50-79 %
[2] = organism: Gallus gallus; assay: Anticoccidial activity (percent reduction in oocyst production) against Eimeria brunetti in chickens at 66 ppm; Range = 50-79 %
[3] = organism: Gallus gallus; assay: Anticoccidial activity (percent reduction in oocyst production) against Eimeria acervulina in chickens at 66 ppm; Range = 50-79 %
[4] = organism: Gallus gallus; assay: Anticoccidial activity (percent reduction in oocyst production) against Eimeria tenella in chickens at 66 ppm; Range = 50-79 %
[5] = organism: Gallus gallus; assay: Anticoccidial activity (percent reduction in oocyst production) against Eimeria praecox in chickens at 66 ppm; Range = 50-79 %
[6] = organism: Gallus gallus; assay: Anticoccidial activity (percent reduction in oocyst production) against Eimeria maxima in chickens at 66 ppm; Range = 50-79 %
[7] = organism: Gallus gallus; assay: Anticoccidial activity (percent reduction in oocyst production) against Eimeria necatrix in chickens at 66 ppm; Range = 50-79 %
[8] = organism: Gallus gallus; assay: Anticoccidial activity (percent reduction in oocyst production) against Eimeria mivati in chickens at 66 ppm; Range = 50-79 %

Measured: Activity

CC[C@@H](C(=O)[C@@H](C)[C@@H](O)[C@H](C)[C@@H]1O[C@@H]([C@@H](CC)C(=O)O)CC[C@@H]1C)[C@H]1O[C@]2(C=C[C@@H](O)[C@]3(CC[C@@](C)([C@H]4CC[C@](O)(CC)[C@H](C)O4)O3)O2)[C@H](C)C[C@@H]1C [SALINOMYCIN]
<79%: all assays above
